Values of other authors as cited in patent US5843942A, “Aromatic amino ethers as pain relieving agents” (Zeneca Limited, priority 1994, dated 1998).

For CC(=O)NNC(=O)N1Cc2ccccc2Oc2ccc(Cl)cc21 [SC-19220], the “block of the effect of PGE2” value (guinea pig ileum) is given as “blocks the effect of PGE2”, the “block of the effect of PGE2” value (dog fundus) is given as “blocks the effect of PGE2” and the “block of the effect of PGE2” value (cat trachea) is given as “not on other tissues such as the cat trachea”.
